Reference: ChEMBL document CHEMBL1201862, “PubChem BioAssay data set” (2004)
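In this assay, cells in 96-well plates receive the compound at five concentrations for 48 hours. Endpoints are linearly interpolated between the surrounding concentrations. At the GI50, growth is halved.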 Active and inactive are the calls of the source. Cut-off read from the data, not from the text of the source: active = GI50 up to about 1.1 µM and inactive = higher.

Columns and labels:
Assay in all cases: inhibition of tumour cell growth, NCI panel, 48 h
Malme-3M = system: Malme-3M
HOP-62 = system: HOP-62
COLO 205 = system: COLO 205
RXF 393 = system: RXF 393
MOLT-4 = system: MOLT-4
LOX IMVI = system: LOX IMVI
HCT-116 = system: HCT-116
HCC 2998 = system: HCC 2998
SK-MEL-2 = system: SK-MEL-2
CCRF-CEM = system: CCRF-CEM
UO-31 = system: UO-31
SF-539 = system: SF-539
K562 = system: K562
MDA-MB-231 = system: MDA-MB-231
A549 = system: A549
NCI/ADR-RES = system: NCI/ADR-RES
U-251 = system: U-251
SK-MEL-5 = system: SK-MEL-5
SK-MEL-28 = system: SK-MEL-28
BT-549 = system: BT-549

Measured: GI50

COC1(OC)N=C(N)C2(C#N)C(C)CC(=O)N(N(C)C)C12C#N (stereo not given)
inactive: Malme-3M > 100 µM | HOP-62 > 100 µM | COLO 205 > 100 µM | RXF 393 > 100 µM | MOLT-4 > 100 µM | LOX IMVI > 100 µM | HCT-116 > 100 µM | HCC 2998 > 100 µM | SK-MEL-2 > 100 µM | CCRF-CEM > 100 µM | UO-31 > 100 µM | SF-539 > 100 µM | K562 > 100 µM | MDA-MB-231 > 100 µM | A549 > 100 µM | NCI/ADR-RES > 100 µM | U-251 > 100 µM | SK-MEL-5 > 100 µM | SK-MEL-28 > 100 µM

CCCCCC(=O)NC(=S)Nc1nnn[nH]1
inactive: Malme-3M > 100 µM | HOP-62 > 100 µM | COLO 205 > 100 µM | RXF 393 > 100 µM | MOLT-4 > 100 µM | LOX IMVI > 100 µM | HCT-116 > 100 µM | HCC 2998 > 100 µM | SK-MEL-2 > 100 µM | CCRF-CEM > 100 µM | UO-31 > 100 µM | SF-539 > 100 µM | K562 > 100 µM | MDA-MB-231 > 100 µM | A549 > 100 µM | U-251 > 100 µM | SK-MEL-5 > 100 µM | SK-MEL-28 > 100 µM

COC1(OC)c2no[n+]([O-])c2C(OC)(OC)c2c1no[n+]2[O-]
inactive: Malme-3M 14.4 µM | HOP-62 18.4 µM | COLO 205 12.9 µM | RXF 393 26.1 µM | MOLT-4 12.4 µM | LOX IMVI 14.9 µM | HCT-116 11.1 µM | HCC 2998 21 µM | SK-MEL-2 21.1 µM | CCRF-CEM 4.19 µM | UO-31 28.2 µM | SF-539 18.3 µM | K562 38.9 µM | MDA-MB-231 16.4 µM | A549 23.6 µM | NCI/ADR-RES 26.6 µM | SK-MEL-5 14.9 µM | SK-MEL-28 15.7 µM

CCCCCCCCCCCCCCCCc1c(C(=O)OC)[nH]c(=S)[nH]c1=O
inactive: Malme-3M > 50 µM | HOP-62 > 50 µM | COLO 205 > 50 µM | RXF 393 > 50 µM | MOLT-4 > 50 µM | LOX IMVI > 50 µM | HCT-116 > 50 µM | HCC 2998 > 50 µM | SK-MEL-2 > 50 µM | CCRF-CEM > 50 µM | UO-31 > 50 µM | SF-539 > 50 µM | K562 > 50 µM | A549 > 50 µM | U-251 > 50 µM | SK-MEL-5 > 50 µM | SK-MEL-28 > 50 µM

COc1cc(CNC(=O)[C@H](Cc2ccc(O)cn2)NC(C)=O)cc(OC)c1
inactive: Malme-3M > 100 µM | HOP-62 > 100 µM | COLO 205 > 100 µM | RXF 393 > 100 µM | MOLT-4 57.8 µM | LOX IMVI > 100 µM | HCT-116 76.2 µM | HCC 2998 > 100 µM | SK-MEL-2 > 100 µM | CCRF-CEM > 100 µM | BT-549 > 100 µM | UO-31 > 100 µM | SF-539 > 100 µM | K562 83 µM | A549 > 100 µM | NCI/ADR-RES > 100 µM | U-251 > 100 µM | SK-MEL-5 67 µM | SK-MEL-28 > 100 µM

C#CCN(N=O)C(=O)NC(CCCNC(=O)OCc1ccccc1)C(=O)OCc1ccccc1 (stereo not given)
inactive: Malme-3M > 100 µM | HOP-62 > 100 µM | COLO 205 91.2 µM | RXF 393 22.6 µM | MOLT-4 24.8 µM | LOX IMVI 52.4 µM | HCT-116 > 100 µM | HCC 2998 > 100 µM | SK-MEL-2 > 100 µM | CCRF-CEM 22.8 µM | UO-31 > 100 µM | SF-539 75.7 µM | K562 61.9 µM | A549 > 100 µM | U-251 > 100 µM | SK-MEL-5 > 100 µM | SK-MEL-28 24.9 µM

COC1C(O)C(C)OC(O[C@H]2CC[C@@]3(C)C(CC[C@@H]4[C@@H]3CC[C@]3(C)[C@@H](C(C)OC5OC(CO)C(O)C(O)C5O)CC[C@]43O)C2)C1O (stereo not given in full)
inactive: HOP-62 > 25 µM | MOLT-4 > 25 µM | LOX IMVI > 25 µM | HCT-116 > 25 µM | HCC 2998 > 25 µM | SK-MEL-2 > 25 µM | CCRF-CEM > 25 µM | UO-31 > 25 µM | SF-539 > 25 µM | K562 > 25 µM | MDA-MB-231 > 25 µM | A549 > 25 µM | NCI/ADR-RES > 25 µM | U-251 > 25 µM | SK-MEL-5 > 25 µM | SK-MEL-28 > 25 µM

C/C(C=O)=C/[C@@]1(C)O[C@@H](C)[C@@](C)(O)[C@@H]1O
inactive: Malme-3M 52 µM | HOP-62 63.1 µM | COLO 205 40.7 µM | RXF 393 > 100 µM | MOLT-4 5.62 µM | LOX IMVI 95.5 µM | HCT-116 93.1 µM | HCC 2998 17.4 µM | SK-MEL-2 80.5 µM | CCRF-CEM 36.9 µM | UO-31 1.3 µM | SF-539 40.2 µM | K562 7.94 µM | MDA-MB-231 > 100 µM | A549 > 100 µM | NCI/ADR-RES 21.9 µM | U-251 > 100 µM | SK-MEL-5 64.6 µM | SK-MEL-28 > 100 µM

COc1cc2c3c([nH]c2c(OC)c1OC)CCN(Cc1ccccc1)C3
inactive: Malme-3M 16.6 µM | HOP-62 93.5 µM | COLO 205 17 µM | RXF 393 > 100 µM | MOLT-4 25.1 µM | LOX IMVI 16.3 µM | HCT-116 33.9 µM | HCC 2998 17.9 µM | SK-MEL-2 22.6 µM | CCRF-CEM 17.7 µM | SF-539 17.7 µM | K562 20.2 µM | MDA-MB-231 32.8 µM | A549 86.7 µM | NCI/ADR-RES 29.9 µM | U-251 31.8 µM | SK-MEL-5 18.9 µM | SK-MEL-28 21.6 µM

Cc1ccc2ccc(-c3ccccc3)c3c2c1C(=O)c1ccccc1C3=O
inactive: Malme-3M > 100 µM | HOP-62 54.3 µM | COLO 205 > 100 µM | RXF 393 61 µM | MOLT-4 > 100 µM | LOX IMVI > 100 µM | HCT-116 > 100 µM | HCC 2998 > 100 µM | SK-MEL-2 > 100 µM | CCRF-CEM > 100 µM | UO-31 > 100 µM | SF-539 54.3 µM | K562 > 100 µM | A549 > 100 µM | U-251 > 100 µM | SK-MEL-5 53.6 µM | SK-MEL-28 > 100 µM

COC(=O)c1c2c(cc3c1CC1(Cc4cc5c(cc4C1)CCC5)C3)CCC2
inactive: Malme-3M > 100 µM | HOP-62 > 100 µM | RXF 393 > 100 µM | MOLT-4 > 100 µM | LOX IMVI > 100 µM | HCT-116 > 100 µM | HCC 2998 > 100 µM | SK-MEL-2 > 100 µM | CCRF-CEM > 100 µM | UO-31 > 100 µM | SF-539 > 100 µM | K562 > 100 µM | MDA-MB-231 > 100 µM | A549 > 100 µM | NCI/ADR-RES > 100 µM | U-251 > 100 µM | SK-MEL-5 > 100 µM | SK-MEL-28 > 100 µM

CN1C(c2ccccc2)CC(=O)C(N)C1c1ccccc1 (stereo not given)
inactive: Malme-3M 22.1 µM | HOP-62 > 92.5 µM | COLO 205 18.5 µM | RXF 393 24.4 µM | MOLT-4 20.1 µM | LOX IMVI 18 µM | HCT-116 18 µM | HCC 2998 20.8 µM | SK-MEL-2 19.4 µM | CCRF-CEM 25.2 µM | UO-31 25.5 µM | SF-539 42.1 µM | K562 30.6 µM | A549 38.7 µM | U-251 21.4 µM | SK-MEL-5 18.8 µM | SK-MEL-28 18.6 µM

CC1C(c2ccccc2)=CCON1c1ccccc1 (stereo not given)
inactive: Malme-3M > 100 µM | HOP-62 > 100 µM | COLO 205 > 100 µM | RXF 393 > 100 µM | MOLT-4 > 100 µM | LOX IMVI > 100 µM | HCT-116 > 100 µM | HCC 2998 > 100 µM | SK-MEL-2 > 100 µM | CCRF-CEM > 100 µM | UO-31 > 100 µM | SF-539 > 100 µM | K562 > 100 µM | A549 > 100 µM | U-251 > 100 µM | SK-MEL-5 > 100 µM | SK-MEL-28 > 100 µM

O=C(O)c1ccccc1NS(=O)(=O)c1ccc(Cl)cc1
inactive: Malme-3M > 100 µM | HOP-62 > 100 µM | COLO 205 > 100 µM | RXF 393 > 100 µM | MOLT-4 > 100 µM | LOX IMVI > 100 µM | HCT-116 > 100 µM | HCC 2998 > 100 µM | SK-MEL-2 > 100 µM | CCRF-CEM > 100 µM | UO-31 > 100 µM | SF-539 > 100 µM | K562 > 100 µM | A549 > 100 µM | U-251 > 100 µM | SK-MEL-5 > 100 µM | SK-MEL-28 > 100 µM

O=C(Nc1nc(C23CC4CC(CC(C4)C2)C3)cs1)c1cc2cc(Cl)ccc2oc1=O
inactive: Malme-3M > 100 µM | HOP-62 > 100 µM | COLO 205 > 100 µM | RXF 393 > 100 µM | MOLT-4 > 100 µM | LOX IMVI > 100 µM | HCT-116 > 100 µM | HCC 2998 > 100 µM | CCRF-CEM > 100 µM | UO-31 > 100 µM | SF-539 > 100 µM | K562 > 100 µM | MDA-MB-231 > 100 µM | A549 > 100 µM | NCI/ADR-RES > 100 µM | U-251 > 100 µM | SK-MEL-5 > 100 µM | SK-MEL-28 > 100 µM

N#Cc1ccccc1C#C/C=C\C#Cc1ccccn1
inactive: Malme-3M 19.3 µM | HOP-62 19 µM | COLO 205 27.4 µM | RXF 393 14.1 µM | HCT-116 12 µM | HCC 2998 14.5 µM | SK-MEL-2 15 µM | CCRF-CEM 36.5 µM | UO-31 15.3 µM | SF-539 20.5 µM | A549 19.8 µM | NCI/ADR-RES 16.6 µM | U-251 18.5 µM | SK-MEL-5 2.99 µM | SK-MEL-28 17.5 µM
